Results published in patent US20070213338A1, “Triazolo-Pyridazine Compounds and Derivatives Thereof Useful in the Treatment of Neuropathic Pain” (priority 2003, published 2007).

Test system: nerve injury-induced tactile allodynia
Assay: Spinal Nerve Ligation Model (Chung Model)
Type: in vivo, Male Sprague Dawley rats
Details: rat, i.p. dosing at 30 mg/kg
From the text: The spinal nerve ligation model of neuropathic pain was used to assess the effects of test compounds on nerve injury-induced tactile allodynia (S. H. Kim and J. M. Chung, Pain 50:355-363(1992)). Male Sprague Dawley rats (175-200 g) received unilateral tight ligation of the left L5/L6 spinal nerves distal to the dorsal root ganglion using 4-0 silk suture. Behavioral nociceptive testing occurred 7-14 days following spinal nerve ligation by placing the rats in chambers on a wire mesh. Rats were tested for tactile allodynia (decreased hindpaw withdrawal threshold to non-noxious punctate stimulation) by applying a series of calibrated von Frey filaments to the plantar aspect of the left hindpaw ipsilateral to the site of nerve injury. The mean 50% hindpaw withdrawal threshold (g.) was determined using the Dixon “up-own” non-parametric test (Chaplan et al., J. Neurosci. Methods, 53:55-63(1994)). […] Following determination of pre-drug withdrawal thresholds, rats received either an i.p. or p.o. injection of test compound. The effect of the test compound on tactile allodynia was determined over time by measuring hindpaw withdrawal thresholds 30, 60, 90, 120 min post-injection.

SMILES	effect on tactile allodynia (hindpaw withdrawal threshold) [%]
Cc1nnc2c3ccccc3c(OCc3cccc(CNCCc4ccccc4)n3)nn12 [Example 23]	65
FC(F)(F)c1nnc2c3ccccc3c(OCc3cccc(CNCCc4ccccc4)n3)nn12 [Example 58, Phenethyl-[6-(3-trifluoromethyl-[1,2,4]triazolo[3,4,-a]phthalazin-6-yloxymethyl)-pyridin-2-ylmethyl]-amine]	100
